Source: patent US4520031A, “Method for reducing toxic effects of methyl-glyoxal bis-guanylhydrazone” (priority 1982, dated 1985)
“Also recorded” adds a separate entry of the source. Read-outs that look alike come from different tables or passages of the source.

What was measured:
[1] = parameters: muscle pain and weakness in patient with acute leukemia: dose or concentration left out as unconfirmed
Protocol: During the course of the clinical experiments, MGBG was administered to patients in approximately weekly doses ranging from 250 to 1000 mg per square meter.
Pre-treatment minimum evaluation included chest roentgenogram, liver and renal function tests, complete blood count with differential and platelet count and serum glucose. Pre-treatment performance status was recorded for each patient in accordance with SWOG criteria.
This intravenous infusion is administered to the patient over a period of time not less than 30 minutes. Accordingly, an approximation of the patient's surface area in square meters is calculated using a height and weight to surface area nomogram (listed in Documenta Geigy, Scientific Tables (1970) p. 537) and this factor is applied in determining the appropriate amount of MGBG salt to be added to the infusion solution. […] In the absence of toxicity, subsequent doses of MGBG are increased by 100 mg/m^2 over the previous week's dose. If patients experience moderate or severe reversible toxicity, the dose is reduced by 100 mg/m^2 relative to the previous week's dose. No change in dosage strength is made for mild toxicity.

[2] = tested on: advanced malignant disease; assay: Response to weekly MGBG, all diagnoses (Table I); type: in vivo, human
[3] = tested on: Colon; assay: Response to weekly MGBG, colon; type: in vivo, human; conditions: 14 evaluable patients
[4] = tested on: Lung (non-small cell); assay: Response to weekly MGBG, lung; type: in vivo, human; conditions: 6 evaluable patients
[5] = tested on: Esophagus; assay: Response to weekly MGBG, esophagus; type: in vivo, human
[6] = tested on: Prostate; assay: Response to weekly MGBG, prostate; type: in vivo, human; conditions: 6 evaluable patients
[7] = tested on: Melanoma; assay: Response to weekly MGBG, melanoma; type: in vivo, human; conditions: 1 evaluable patient
[8] = tested on: Leukemia; assay: Response to weekly MGBG, leukemia; type: in vivo, human; conditions: 1 mg/m^2 weekly for three weeks; 1 evaluable patient
Protocol: **Patient received 1 mg/m^2 weekly for three weeks

[9] = tested on: Ewings; assay: Response to weekly MGBG, Ewings; type: in vivo, human; conditions: 1 evaluable patient
[10] = tested on: acute myelocytic leukemia; conditions: cited from earlier work
[11] = tested on: spermidine biosynthesis; conditions: in vitro; concentrations as low as; cited from earlier work
[12] = tested on: leukemia-L1210; conditions: Freelander and French; cited from earlier work
[13] = human subjects undergoing MGBG treatment; cited from earlier work
[14] = tested on: DNA synthesis; conditions: reversed by exogenous spermidine; cited from earlier work
[15] = first twelve patients, 250 mg/m^2 weekly

## CC(C=NNC(=N)N)=NNC(=N)N [MGBG, 1,1'-[(methylethanediylidene)dinitrilo] diguanidine]
[1]; 1 course MGBG, 13 patients
  Number with Toxicity: 1 patients
  Number with Toxicity (Approx %): 8%
[1]; 2 courses MGBG, 25 patients
  Number with Toxicity: 7 patients
  Number with Toxicity (Approx %): 28%
[1]; 3 courses MGBG, 15 patients
  Number with Toxicity: 6 patients
  Number with Toxicity (Approx %): 40%
[1]; 90 patients
  Anemia, Hemoglobin 5.0-6.9 g/100 ml: 2 patients
  Anemia, Hemoglobin 7.0-8.9 g/100 ml: 1 patients
  Diarrhea: 3-4 stools/day, no dehydration: 1 patients
  Diarrhea: 4 liquid stools/day, IV hydration required: 1 patients
  Granulocytes: <1000/mm^3: 3 patients
  vomiting ≤6 times/day: 5 patients
  vomiting ≥7 times/day: 3 patients
[1]; 90 patients, 500 mg/m^2 or more each week
  patients with no toxicity (number): 67 patients
[1]; 90 patients, patient with hepatoma, one dose at 600 mg/m^2
  Mucositis: drug-related death: 1 patients
[1]; acute leukemia, three weekly doses
  muscle pain and weakness in patient with acute leukemia: One
[1]; [15]
  toxicity at 250 mg/m^2 weekly: no toxicity
[1]; human, in vivo
  Anorexia (Approx. %): 8%
  Anorexia (No. of Patients): 7 patients
  Balanitis (Approx. %): 4%
  Balanitis (No. of Patients): 4 patients
  Diarrhea (Approx. %): 3%
  Diarrhea (No. of Patients): 3 patients
  Granulocytes: <1500 mm^3: 2 patients
  Hematologic (Approx. %): 11%
  Hematologic (No. of Patients): 10 patients
  Mucositis: erythema: 3 patients
  Mucositis: ulcers, able to eat: 7 patients
  Mucositis: ulcers, unable to eat: 6 patients
  Myelosuppression (number): 7 patients
  Myelosuppression (percent): 8%
  Myopathy (Approx. %): 3%
  Myopathy (No. of Patients): 3 patients
  Nausea and vomiting (Approx. %): 16%
  Nausea and vomiting (No. of Patients): 14 patients
  Platelets: 25 × 10^3 -50 × 10^3 /mm^3: 2 patients
  Skin rash (Approx. %): 2%
  Skin rash (No. of Patients): 2 patients
  Urethritis (Approx. %): 3%
  Urethritis (No. of Patients): 3 patients
  Vasculitis (Approx. %): 2%
  Vasculitis (No. of Patients): 2 patients
  anemia (number): 3 patients
  anemia (percent): 3%
  bloody diarrhea: 1 patients
  hospitalization secondary to vomiting: 1 patients
  nausea, no vomiting: 5 patients
  severe muscle pain and weakness of the lower extremities: three
[1]; increasing numbers of courses
  cumulative toxicity: toxicity appeared to be cumulative
[1]; three patients
  reversibility of muscle pain and weakness: reversible with drug withdrawal
[1]; three patients with muscle pain and weakness
  creatinine phosphokinase and aldolase: normal
[1]; ≥4 courses MGBG, 56 patients
  Number with Toxicity: 28 patients
  Number with Toxicity (Approx %): 50%
[2]; 12 patients, 250 mg/m^2
  biologic effect at 250 mg/m^2: no apparent biologic effect
[2]; [15]
  response at 250 mg/m^2 weekly: no response
[2]; weekly, 65 evaluable patients
  CR (Complete response), total: 2
  CR + PR, total: 11
  IMP (Improvement noted), total: 9
  No Response, total: 45
  PR (Partial response), total: 9
[2]; weekly, colon, esophageal, renal cell, prostate, and breast carcinoma
  antineoplastic activity in solid tumors: effective
[3]
  CR + PR: 3
  No Response: 11
  PR (Partial response): 3
[4]
  CR + PR: 2
  No Response: 4
  PR (Partial response): 2
[5]; 2 evaluable patients
  CR + PR: 1
  No Response: 1
  PR (Partial response): 1
[5]; duration of CR + PR
  Duration Months: 3 Months
[6]
  IMP (Improvement noted): 1
  No Response: 5
[7]
  IMP (Improvement noted): 1
[8]
  IMP (Improvement noted): 1
[9]
  No Response: 1
[10]; average daily parenteral dose of 126 to 160 mg/m^2, Levin et al.
  remission rate (complete remissions): 45%
[10]; daily dosing schedule
  activity in acute myelocytic leukemia: major activity
[10]; from 2.5 months, compared to patients with myeloblastic leukemia treated with 6-mercaptopurine
  median increase in survival: 6.5 months
[11]
  concentration at which MGBG is a potent inhibitor of spermidine biosynthesis: ≥ 0.5 µg/mL
[12]
  antitumor activity: growth inhibiting effects; also recorded: antitumor activity
[13]
  toxic effects unique to man: esophagitis, ulcerative pharyngitis, laryngitis, stomatitis, genital mucosa swelling, conjunctivitis, mucositis, erythema, edema, desquamating dermatitis, and profound anorexia with associated weight loss; also recorded: mucositis, vasculitis, and profound anorexia with associated weight loss
[14]
  MGBG-mediated depression of DNA synthesis, associated changes: spermidine depletion and putrescine accumulation
